According to ChEMBL document CHEMBL3885881, “DrugMatrix”:

Species: Rattus norvegicus
Assay: DrugMatrix - Regimen: Daily Repeat
Format: toxicity, organism-based, Sprague-Dawley
Parameters: regimen Daily Repeat, gender Male, age 6-8 weeks
Conditions: in vivo, po, route oral GAVAGE, vehicle .5 % CMC; for ABSOLUTE BASOPHIL / ABSOLUTE EOSINOPHIL / ABSOLUTE LYMPHOCYTE / ABSOLUTE MONOCYTE / ABSOLUTE SEGMENTED NEUTROPHIL / BASOPHIL / EOSINOPHIL / ERYTHROCYTE COUNT / HEMATOCRIT / HEMOGLOBIN / LEUKOCYTE COUNT / LYMPHOCYTE / MEAN CORPUSCULAR HEMOGLOBIN / MEAN CORPUSCULAR HEMOGLOBIN CONCENTRATION / MEAN CORPUSCULAR VOLUME / MONOCYTE / NEUTROPHIL / NUCLEATED RED BLOOD CELLS / PLATELET COUNT: tissue Blood; for ALANINE AMINOTRANSFERASE / ALBUMIN / ALKALINE PHOSPHATASE / ASPARTATE AMINOTRANSFERASE / BLOOD UREA NITROGEN / CARBON DIOXIDE / CHLORIDE / CHOLESTEROL / CREATINE PHOSPHOKINASE / CREATININE / GLUCOSE / LACTATE DEHYDROGENASE / LIPASE / PHOSPHORUS / SODIUM / TOTAL BILIRUBIN / TOTAL PROTEIN / URIC ACID: tissue Plasma
[1] = 20 mg/kg, 72 h, dose level Low, time 3 day
[2] = 20 mg/kg, 120 h, dose level Low, time 5 day
[3] = 2000 mg/kg, 72 h, dose level High, time 3 day
[4] = 2000 mg/kg, 120 h, dose level High, time 5 day

NCCCC[C@H](N[C@@H](CCc1ccccc1)C(=O)O)C(=O)N1CCC[C@H]1C(=O)O [LISINOPRIL ANHYDROUS]
ABSOLUTE BASOPHIL [1]: 0 CELLS/uL
ABSOLUTE EOSINOPHIL [1]: 69 CELLS/uL
ABSOLUTE LYMPHOCYTE [1]: 9482.67 CELLS/uL
ABSOLUTE MONOCYTE [1]: 143.67 CELLS/uL
ABSOLUTE SEGMENTED NEUTROPHIL [1]: 904.67 CELLS/uL
BASOPHIL [1]: 0%
EOSINOPHIL [1]: 0.67%
ERYTHROCYTE COUNT [1]: 5.65 x10E6/uL
HEMATOCRIT [1]: 34.1%
HEMOGLOBIN [1]: 13.3 G/DL
LEUKOCYTE COUNT [1]: 10.6 x10E3/uL
LYMPHOCYTE [1]: 89.33%
MEAN CORPUSCULAR HEMOGLOBIN [1]: 23.63 pg
MEAN CORPUSCULAR HEMOGLOBIN CONCENTRATION [1]: 39 G/DL
MEAN CORPUSCULAR VOLUME [1]: 60.5 fL
MONOCYTE [1]: 1.33%
NEUTROPHIL [1]: 8.67%
NUCLEATED RED BLOOD CELLS [1]: 0 /100WBC
PLATELET COUNT [1]: 1392 x10E3/uL
ALANINE AMINOTRANSFERASE [1]: 44 u/L
ALBUMIN [1]: 4.1 G/DL
ALKALINE PHOSPHATASE [1]: 387 u/L
ASPARTATE AMINOTRANSFERASE [1]: 70 u/L
BLOOD UREA NITROGEN [1]: 22.67 mg/dL
CARBON DIOXIDE [1]: 23.33 mmol/L
CHLORIDE [1]: 101 MEQ/L
CHOLESTEROL [1]: 80.33 mg/dL
CREATINE PHOSPHOKINASE [1]: 236.67 u/L
CREATININE [1]: 0.18 mg/dL
GLUCOSE [1]: 166 mg/dL
LACTATE DEHYDROGENASE [1]: 94.33 u/L
LIPASE [1]: 10 u/L
PHOSPHORUS [1]: 11.87 mg/dL
SODIUM [1]: 140.73 MEQ/L
TOTAL BILIRUBIN [1]: 0.23 mg/dL
TOTAL PROTEIN [1]: 5.83 G/DL
URIC ACID [1]: 2.13 mg/dL
ABSOLUTE BASOPHIL [2]: 0 CELLS/uL
ABSOLUTE EOSINOPHIL [2]: 0 CELLS/uL
ABSOLUTE LYMPHOCYTE [2]: 11890.67 CELLS/uL
ABSOLUTE MONOCYTE [2]: 94.67 CELLS/uL
ABSOLUTE SEGMENTED NEUTROPHIL [2]: 1714.67 CELLS/uL
BASOPHIL [2]: 0%
EOSINOPHIL [2]: 0%
ERYTHROCYTE COUNT [2]: 6.1 x10E6/uL
HEMATOCRIT [2]: 36.67%
HEMOGLOBIN [2]: 14.77 G/DL
LEUKOCYTE COUNT [2]: 13.7 x10E3/uL
LYMPHOCYTE [2]: 87%
MEAN CORPUSCULAR HEMOGLOBIN [2]: 24.23 pg
MEAN CORPUSCULAR HEMOGLOBIN CONCENTRATION [2]: 40.3 G/DL
MEAN CORPUSCULAR VOLUME [2]: 60.07 fL
MONOCYTE [2]: 0.67%
NEUTROPHIL [2]: 12.33%
NUCLEATED RED BLOOD CELLS [2]: 0 /100WBC
PLATELET COUNT [2]: 1320.33 x10E3/uL
ALANINE AMINOTRANSFERASE [2]: 51.33 u/L
ALBUMIN [2]: 4.53 G/DL
ALKALINE PHOSPHATASE [2]: 401 u/L
ASPARTATE AMINOTRANSFERASE [2]: 81.67 u/L
BLOOD UREA NITROGEN [2]: 22.33 mg/dL
CARBON DIOXIDE [2]: 27.67 mmol/L
CHLORIDE [2]: 96.33 MEQ/L
CHOLESTEROL [2]: 70.67 mg/dL
CREATINE PHOSPHOKINASE [2]: 297.33 u/L
CREATININE [2]: 0.22 mg/dL
GLUCOSE [2]: 158 mg/dL
LACTATE DEHYDROGENASE [2]: 249 u/L
LIPASE [2]: 9.67 u/L
PHOSPHORUS [2]: 11.77 mg/dL
SODIUM [2]: 139.17 MEQ/L
TOTAL BILIRUBIN [2]: 0.17 mg/dL
URIC ACID [2]: 2 mg/dL
ABSOLUTE BASOPHIL [3]: 0 CELLS/uL
ABSOLUTE EOSINOPHIL [3]: 42.33 CELLS/uL
ABSOLUTE LYMPHOCYTE [3]: 11490 CELLS/uL
ABSOLUTE MONOCYTE [3]: 124.67 CELLS/uL
ABSOLUTE SEGMENTED NEUTROPHIL [3]: 1076.33 CELLS/uL
BASOPHIL [3]: 0%
EOSINOPHIL [3]: 0.33%
ERYTHROCYTE COUNT [3]: 5.63 x10E6/uL
HEMATOCRIT [3]: 33.57%
HEMOGLOBIN [3]: 13.17 G/DL
LEUKOCYTE COUNT [3]: 12.73 x10E3/uL
LYMPHOCYTE [3]: 90%
MEAN CORPUSCULAR HEMOGLOBIN [3]: 23.43 pg
MEAN CORPUSCULAR HEMOGLOBIN CONCENTRATION [3]: 39.27 G/DL
MEAN CORPUSCULAR VOLUME [3]: 59.63 fL
MONOCYTE [3]: 1%
NEUTROPHIL [3]: 8.67%
NUCLEATED RED BLOOD CELLS [3]: 0 /100WBC
PLATELET COUNT [3]: 1324.33 x10E3/uL
ALANINE AMINOTRANSFERASE [3]: 40.33 u/L
ALBUMIN [3]: 4.03 G/DL
ALKALINE PHOSPHATASE [3]: 322.67 u/L
ASPARTATE AMINOTRANSFERASE [3]: 68 u/L
BLOOD UREA NITROGEN [3]: 26.67 mg/dL
CARBON DIOXIDE [3]: 24.67 mmol/L
CHLORIDE [3]: 101.33 MEQ/L
CHOLESTEROL [3]: 71.67 mg/dL
CREATINE PHOSPHOKINASE [3]: 262 u/L
CREATININE [3]: 0.29 mg/dL
GLUCOSE [3]: 155 mg/dL
LACTATE DEHYDROGENASE [3]: 122.67 u/L
LIPASE [3]: 9.67 u/L
PHOSPHORUS [3]: 11.5 mg/dL
SODIUM [3]: 141.1 MEQ/L
TOTAL BILIRUBIN [3]: 0.13 mg/dL
TOTAL PROTEIN [3]: 5.77 G/DL
URIC ACID [3]: 1.53 mg/dL
ABSOLUTE BASOPHIL [4]: 0 CELLS/uL
ABSOLUTE EOSINOPHIL [4]: 43.33 CELLS/uL
ABSOLUTE LYMPHOCYTE [4]: 10946.67 CELLS/uL
ABSOLUTE MONOCYTE [4]: 86.67 CELLS/uL
ABSOLUTE SEGMENTED NEUTROPHIL [4]: 1123.33 CELLS/uL
BASOPHIL [4]: 0%
EOSINOPHIL [4]: 0.33%
ERYTHROCYTE COUNT [4]: 5.62 x10E6/uL
HEMATOCRIT [4]: 34.17%
HEMOGLOBIN [4]: 13.67 G/DL
LEUKOCYTE COUNT [4]: 12.2 x10E3/uL
LYMPHOCYTE [4]: 89.67%
MEAN CORPUSCULAR HEMOGLOBIN [4]: 24.37 pg
MEAN CORPUSCULAR HEMOGLOBIN CONCENTRATION [4]: 40 G/DL
MEAN CORPUSCULAR VOLUME [4]: 60.8 fL
MONOCYTE [4]: 0.67%
NEUTROPHIL [4]: 9.33%
NUCLEATED RED BLOOD CELLS [4]: 0 /100WBC
PLATELET COUNT [4]: 1374 x10E3/uL
ALANINE AMINOTRANSFERASE [4]: 43.33 u/L
ALBUMIN [4]: 4.17 G/DL
ALKALINE PHOSPHATASE [4]: 336.33 u/L
ASPARTATE AMINOTRANSFERASE [4]: 74 u/L
BLOOD UREA NITROGEN [4]: 29.67 mg/dL
CARBON DIOXIDE [4]: 22.67 mmol/L
CHLORIDE [4]: 103 MEQ/L
CHOLESTEROL [4]: 72 mg/dL
CREATINE PHOSPHOKINASE [4]: 214 u/L
CREATININE [4]: 0.25 mg/dL
GLUCOSE [4]: 167.67 mg/dL
LACTATE DEHYDROGENASE [4]: 146.33 u/L
LIPASE [4]: 9.67 u/L
PHOSPHORUS [4]: 10.97 mg/dL
SODIUM [4]: 141.47 MEQ/L
TOTAL BILIRUBIN [4]: 0.13 mg/dL
TOTAL PROTEIN [4]: 5.97 G/DL
URIC ACID [4]: 1.9 mg/dL
